Values of other authors as cited in patent US20110097427A1, “Molecular Targets and Dietary Modulators of Exercise-Induced Muscle Damage” (priority 2009, published 2011).

Details: Risérus et al., 2008, Diabetes 57: 332-339

## Cc1cc(SCc2sc(-c3ccc(C(F)(F)F)cc3)nc2C)ccc1OCC(=O)O [GW501516]
  urinary isoprostanes: reduced
